Assay results taken from patent publication US12104173B2, “Method for differentiation of human pluripotent stem cell lines in suspension culture” (AGENCY FOR SCIENCE, TECHNOLOGY AND RESEARCH, priority 2018, dated 2024).

What was measured:
Assay in all cases: CHIR dose: hematopoietic/erythroid differentiation of agitated hPSC-MC aggregates
Type in all cases: cell-based, human
hES-3 hESC line = conditions: for Erythroblast expansion Fold-expansion: optimal dose of CHIR-99021, 24 days in erythroblast expansion medium (static), cumulative
Method: (§1) Human pluripotent stem cell-microcarrier (HPSC-MC) aggregates generated from different hPSC lines were differentiated using 3 different CHIR doses (5, 10 and 15 μM for 24 hours) and were evaluated for T-bra (day 2) and KDR+PDGFRβ− (day 4) expression by flow cytometry, induction of key hematopoietic transcription factors by RT-PCR (day 4), hematopoietic precursor expansion (day 14) and erythroblast expansion (day 42).
(§2) Table 2—Hematopoietic differentiation of nine human pluripotent stem cell (hPSC) lines, from expansion in agitated microcarrier culture to erythroblast expansion—This table summarises the different stages of differentiation; hPSC expansion, mesoderm induction, hematopoietic precursor and erythroblast expansion of multiple hPSC-MC aggregate lines differentiated with optimal dose of CHIR-99021. Fold-expansion of hPSC-MC aggregates following 7 days of agitated culture, hematopoietic precursors following 14 days of culture in methylcellulose medium and erythroblast expansion following 24 days in expansion medium are reported. Flow cytometric evaluation of % T-bra+ cells on day 2 and % KDR+ cells on day 4 during mesoderm induction, % CD43+ cells during hematopoietic precursor expansion, % CD235a+ cells and fetal hemoglobin expression during erythroblast expansion stage are summarised. Total erythroid cells per hPSC seeded on day 42 was calculated as number of embryoid bodies derived on day 4 per hPSC seeded*erythroblast fold expansion*percent CD235a+ erythroblast.
(§3) Analysis of Design of experiments (DoE) outcomes and evaluation of selected conditions generated by the MODDE® software allowed the development of an optimized protocol for hematopoietic mesoderm induction of human pluripotent stem cell-microcarrier (hPSC-MC) aggregates initially expanded under continuous agitation. Approximately 2 to 4 million hPSC-MC aggregates in 3 ml of Stemline® II medium were differentiated as follows: day 1; 30 ng/ml of BMP4, 50 ng/ml VEGF165, 12 μM CHIR-99021 (Selleck Chemicals, USA), 50 ng/ml Activin A, day 2; 30 ng/ml of BMP4, 50 ng/ml VEGF165, 50 ng/ml Activin A, day 3: 30 ng/ml of BMP4, 50 ng/ml VEGF165 and 20 ng/ml bFGF. Four days post-differentiation, single cells derived by TrypLE™ Express (ThermoFisher Scientific) treatment and strained through 40 μm cell strainers (Greiner Bio-one, Germany) were used for hematopoietic precursor and erythroblast expansion and erythroblast terminal maturation as detailed herein. Hematopoietic and erythroblast differentiation were monitored by flow cytometry, quantitative real-time PCR, immunoblotting and microscopic imaging. Oxygen binding affinity of differentiated erythroblast was determined using a Hemox Analyzer (TCS Scientific Corp, USA).
(§4) HPSC-MC aggregates were dissociated into single cells by treatment with TrypLE. Express (ThermoFisher Scientific) for 5 minutes at 37° C., passed through 40 μm cell strainer (Greiner Bio-one), centrifuged at 1300 rpm for 3 minutes to pellet cells, and rinsed once with phosphate buffered saline (PBS) before re-suspension in Stemline II medium. Two hundred thousand cells in 100 μl of Stemline II medium were transferred to a 6-well ultra-low attachment plate and cultured with Blast growth medium (BGM) for 2 weeks in static conditions as detailed herein.
(§5) Hematopoietic precursors were mixed with equal volume of Stemline II medium containing 50 ng/ml of SCF (STEMCELL. Technologies) and 3 U/ml EPO (Peprotech, USA), for an additional 7 days. Subsequently, cells were diluted 10-fold with PBS and pelleted by centrifugation at 3000 rpm for 10 minutes. […]

D11 O-neg hiPSC line = system: D11 O-neg hiPSC line
Method: as §1, §2, §3, §4, §5

D5 O-neg hiPSC line = conditions: for Erythroblast expansion Fold-expansion: optimal dose of CHIR-99021, 24 days in erythroblast expansion medium (static), cumulative
Method: as §1, §2, §3, §4, §5

D12 O-neg hiPSC line = system: D12 O-neg hiPSC line
Method: as §1, §2, §3, §4, §5

IMR90 hiPSC line = conditions: for Erythroblast expansion Fold-expansion: optimal dose of CHIR-99021, 24 days in erythroblast expansion medium (static), cumulative
Method: as §1, §2, §3, §4, §5

X13 O-neg hiPSC line = conditions: for Erythroblast expansion Fold-expansion: optimal dose of CHIR-99021, 24 days in erythroblast expansion medium (static), cumulative; for Total erythroid cells per hPSC seeded (day 42): optimal dose of CHIR-99021, CD235a+ erythroid cells
Method: as §1, §2, §3, §4, §5

BR2 O-neg hiPSC line = system: BR2 O-neg hiPSC line
Method: as §1, §2, §3, §4, §5

BR7 O-neg hiPSC line = conditions: for Erythroblast expansion Fold-expansion: optimal dose of CHIR-99021, 24 days in erythroblast expansion medium (static), cumulative
Method: as §1, §2, §3, §4, §5

[1] = 15 μM CHIR dose, day 14 post differentiation
[2] = 15 μM CHIR for 24 hours, day 2, flow cytometry
[3] = 15 μM CHIR for 24 hours, day 4, flow cytometry
[4] = optimal dose of CHIR-99021, 14 days in methyl cellulose medium
[5] = optimal dose of CHIR-99021, 14 days in methyl cellulose medium (static)
[6] = optimal dose of CHIR-99021, day 2
[7] = optimal dose of CHIR-99021, erythroblast expansion stage
[8] = optimal dose of CHIR-99021, fetal hemoglobin, flow cytometry
[9] = erythroblast expansion medium, up to day 42
[10] = optimal dose of CHIR-99021, day 4

Cc1c[nH]c(-c2cnc(NCCNc3ccc(C#N)cn3)nc2-c2ccc(Cl)cc2Cl)n1 [CHIR-99021, 6-[[2-[[4-(2,4-Dichlorophenyl)-5-(5-methyl-1H-imidazol-2-yl)-2-pyrimidinyl]amino]ethyl]amino]-3-pyridinecarbonitrile]
fold-expansion of hematopoietic precursors (hES-3 hESC line; [1]): 6.97±1.35 fold
T-Bra+ cells (hES-3 hESC line; [2]): 18±3.82%
KDR+PDGFRβ- cells (hES-3 hESC line; [3]): 14.6±0.81%
Total erythroid cells per hPSC seeded (day 42) (hES-3 hESC line; optimal dose of CHIR-99021): 244
Hematopoietic precursor expansion % CD43 (hES-3 hESC line; [4]): 42.8%
Hematopoietic precursor expansion Fold-expansion (hES-3 hESC line; [5]): 6.9 fold
Erythroblast expansion Fold-expansion (hES-3 hESC line; day 42): 324 fold
Erythroblast expansion Fold-expansion (hES-3 hESC line; day 42, listed as CHIR): 324±83.97 fold
Mesoderm induction % T-Bra (hES-3 hESC line; [6]): 18%
Erythroblast expansion % CD235a+ (hES-3 hESC line; [7]): 78.5%
Erythroblast expansion Hemoglobin expression (hES-3 hESC line; [8]): 99.3
fold-expansion of hematopoietic precursors (D11 O-neg hiPSC line; [1]): 3.2±0.33 fold
T-Bra+ cells (D11 O-neg hiPSC line; [2]): 33.4±4.10%
KDR+PDGFRβ- cells (D11 O-neg hiPSC line; [3]): 11.74±1.16%
erythroblast differentiation (D11 O-neg hiPSC line; [9]): failed to differentiate into erythroid cells
Hematopoietic precursor expansion % CD43 (D11 O-neg hiPSC line; [4]): 17.4%
Hematopoietic precursor expansion Fold-expansion (D11 O-neg hiPSC line; [5]): 3.2 fold
Mesoderm induction % T-Bra (D11 O-neg hiPSC line; [6]): 33.4%
Mesoderm induction % KDR+ PDGFRα− (D11 O-neg hiPSC line; [10]): 11.7%
fold-expansion of hematopoietic precursors (D5 O-neg hiPSC line; [1]): 7.99±0.82 fold
T-Bra+ cells (D5 O-neg hiPSC line; [2]): 55.6±8.26%
KDR+PDGFRβ- cells (D5 O-neg hiPSC line; [3]): 35.77±1.53%
Total erythroid cells per hPSC seeded (day 42) (D5 O-neg hiPSC line; optimal dose of CHIR-99021): 2308
Hematopoietic precursor expansion % CD43 (D5 O-neg hiPSC line; [4]): 27.7%
Hematopoietic precursor expansion Fold-expansion (D5 O-neg hiPSC line; [5]): 7.9 fold
Erythroblast expansion Fold-expansion (D5 O-neg hiPSC line; day 42): 3712 fold
Erythroblast expansion Fold-expansion (D5 O-neg hiPSC line; day 42, listed as CHIR): 3712±1651 fold
Mesoderm induction % T-Bra (D5 O-neg hiPSC line; [6]): 55.6%
Erythroblast expansion % CD235a+ (D5 O-neg hiPSC line; [7]): 74.6%
Erythroblast expansion Hemoglobin expression (D5 O-neg hiPSC line; [8]): 99.2
fold-expansion of hematopoietic precursors (D12 O-neg hiPSC line; [1]): 5.26±1.32 fold
T-Bra+ cells (D12 O-neg hiPSC line; [2]): 10.6±2.78%
KDR+PDGFRβ- cells (D12 O-neg hiPSC line; [3]): 31.13±5.17%
erythroblast differentiation (D12 O-neg hiPSC line; [9]): failed to differentiate into erythroid cells
Hematopoietic precursor expansion % CD43 (D12 O-neg hiPSC line; [4]): 22%
Hematopoietic precursor expansion Fold-expansion (D12 O-neg hiPSC line; [5]): 7.9 fold
Mesoderm induction % T-Bra (D12 O-neg hiPSC line; [6]): 10.9%
Mesoderm induction % KDR+ PDGFRα− (D12 O-neg hiPSC line; [10]): 20.7%
T-Bra+ cells (IMR90 hiPSC line; [2]): 17.22±7.4%
KDR+PDGFRβ- cells (IMR90 hiPSC line; [3]): 14.2±1.69%
Total erythroid cells per hPSC seeded (day 42) (IMR90 hiPSC line; optimal dose of CHIR-99021): 1300
Hematopoietic precursor expansion % CD43 (IMR90 hiPSC line; [4]): 21.9%
Hematopoietic precursor expansion Fold-expansion (IMR90 hiPSC line; [5]): 7.9 fold
Erythroblast expansion Fold-expansion (IMR90 hiPSC line; day 42): 918.1 fold
Erythroblast expansion Fold-expansion (IMR90 hiPSC line; day 42, listed as CHIR): 918.1±342.4 fold
Mesoderm induction % T-Bra (IMR90 hiPSC line; [6]): 17.2%
Erythroblast expansion % CD235a+ (IMR90 hiPSC line; [7]): 75.9%
Erythroblast expansion Hemoglobin expression (IMR90 hiPSC line; [8]): 98.1
fold-expansion of hematopoietic precursors (X13 O-neg hiPSC line; [1]): 9.93±0.28 fold
T-Bra+ cells (X13 O-neg hiPSC line; [2]): 60.9±8.55%
KDR+PDGFRβ- cells (X13 O-neg hiPSC line; [3]): 40.8±1.34%
Hematopoietic precursor expansion % CD43 (X13 O-neg hiPSC line; [4]): 43.9%
Hematopoietic precursor expansion Fold-expansion (X13 O-neg hiPSC line; [5]): 9.9 fold
Erythroblast expansion Fold-expansion (X13 O-neg hiPSC line; day 42): 12605 fold
Erythroblast expansion Fold-expansion (X13 O-neg hiPSC line; day 42, listed as CHIR): 12605±2126 fold
Total erythroid cells per hPSC seeded (day 42) (X13 O-neg hiPSC line): 7607
Total erythroid cells per hPSC seeded (day 42) (X13 O-neg hiPSC line; listed as CHIR): 7607±1016
Mesoderm induction % T-Bra (X13 O-neg hiPSC line; [6]): 60.9%
Erythroblast expansion % CD235a+ (X13 O-neg hiPSC line; [7]): 67.4%
Erythroblast expansion Hemoglobin expression (X13 O-neg hiPSC line; [8]): 96.9
fold-expansion of hematopoietic precursors (BR2 O-neg hiPSC line; [1]): 8.07±2.06 fold
T-Bra+ cells (BR2 O-neg hiPSC line; [2]): 20.1±2.4%
KDR+PDGFRβ- cells (BR2 O-neg hiPSC line; [3]): 24.07±1.34%
erythroblast differentiation (BR2 O-neg hiPSC line; [9]): failed to differentiate into erythroid cells
Hematopoietic precursor expansion % CD43 (BR2 O-neg hiPSC line; [4]): 8.7%
Hematopoietic precursor expansion Fold-expansion (BR2 O-neg hiPSC line; [5]): 8.1 fold
Mesoderm induction % T-Bra (BR2 O-neg hiPSC line; [6]): 20.1%
Mesoderm induction % KDR+ PDGFRα− (BR2 O-neg hiPSC line; [10]): 24.1%
fold-expansion of hematopoietic precursors (BR7 O-neg hiPSC line; [1]): 5.81±0.92 fold
T-Bra+ cells (BR7 O-neg hiPSC line; [2]): 20.8±3.8%
KDR+PDGFRβ- cells (BR7 O-neg hiPSC line; [3]): 18.6±1.57%
Total erythroid cells per hPSC seeded (day 42) (BR7 O-neg hiPSC line; optimal dose of CHIR-99021): 12
Hematopoietic precursor expansion % CD43 (BR7 O-neg hiPSC line; [4]): 14.3%
Hematopoietic precursor expansion Fold-expansion (BR7 O-neg hiPSC line; [5]): 5.8 fold
Erythroblast expansion Fold-expansion (BR7 O-neg hiPSC line; day 42): 31.5 fold
Erythroblast expansion Fold-expansion (BR7 O-neg hiPSC line; day 42, listed as CHIR): 31.48±7.7 fold
Mesoderm induction % T-Bra (BR7 O-neg hiPSC line; [6]): 20.8%
Erythroblast expansion % CD235a+ (BR7 O-neg hiPSC line; [7]): 33.8%
Erythroblast expansion Hemoglobin expression (BR7 O-neg hiPSC line; [8]): 95.5
